Measured values taken from PubChem BioAssay (NCI).
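Assay format: 96-well plates, 48-hour exposure. TGI is the concentration that stops growth completely.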

Experiments:
Test in all cases: NCI tumour cell line growth inhibition, 48 h
786-0 renal = tested on: 786-0 renal
A498 renal = tested on: A498 renal
A549 NSCLC = tested on: A549 NSCLC
ACHN renal = tested on: ACHN renal
BT-549 breast = tested on: BT-549 breast
CAKI-1 renal = tested on: CAKI-1 renal
CCRF-CEM leukemia = tested on: CCRF-CEM leukemia
COLO 205 colon = tested on: COLO 205 colon
DU-145 prostate = tested on: DU-145 prostate
EKVX NSCLC = tested on: EKVX NSCLC
HCC-2998 colon = tested on: HCC-2998 colon
HCT-116 colon = tested on: HCT-116 colon
HCT-15 colon = tested on: HCT-15 colon
HL-60(TB) leukemia = tested on: HL-60(TB) leukemia
HOP-62 NSCLC = tested on: HOP-62 NSCLC
HOP-92 NSCLC = tested on: HOP-92 NSCLC
HS 578T breast = tested on: HS 578T breast
HT29 colon = tested on: HT29 colon
IGROV1 ovarian = tested on: IGROV1 ovarian
K-562 leukemia = tested on: K-562 leukemia
KM12 colon = tested on: KM12 colon
LOX IMVI melanoma = tested on: LOX IMVI melanoma
M14 melanoma = tested on: M14 melanoma
MALME-3M melanoma = tested on: MALME-3M melanoma
MCF7 breast = tested on: MCF7 breast
MDA-MB-231 breast = tested on: MDA-MB-231 breast
MDA-MB-435 = tested on: MDA-MB-435
MDA-N = tested on: MDA-N
MOLT-4 leukemia = tested on: MOLT-4 leukemia
NCI-H226 lung = tested on: NCI-H226 lung
NCI-H23 lung = tested on: NCI-H23 lung
NCI-H460 lung = tested on: NCI-H460 lung
NCI-H522 lung = tested on: NCI-H522 lung
NCI/ADR-RES ovarian = tested on: NCI/ADR-RES ovarian
OVCAR-3 ovarian = tested on: OVCAR-3 ovarian
OVCAR-4 ovarian = tested on: OVCAR-4 ovarian
OVCAR-5 ovarian = tested on: OVCAR-5 ovarian
OVCAR-8 ovarian = tested on: OVCAR-8 ovarian
PC-3 prostate = tested on: PC-3 prostate
RPMI-8226 leukemia = tested on: RPMI-8226 leukemia
RXF 393 renal = tested on: RXF 393 renal
SF-268 CNS = tested on: SF-268 CNS
SF-295 CNS = tested on: SF-295 CNS
SF-539 CNS = tested on: SF-539 CNS
SK-MEL-2 melanoma = tested on: SK-MEL-2 melanoma
SK-MEL-28 melanoma = tested on: SK-MEL-28 melanoma
SK-MEL-5 melanoma = tested on: SK-MEL-5 melanoma
SK-OV-3 ovarian = tested on: SK-OV-3 ovarian
SN12C renal = tested on: SN12C renal
SNB-19 CNS = tested on: SNB-19 CNS
SNB-75 CNS = tested on: SNB-75 CNS
SR leukemia = tested on: SR leukemia
SW-620 colon = tested on: SW-620 colon
T-47D breast = tested on: T-47D breast
TK-10 renal = tested on: TK-10 renal
U251 CNS = tested on: U251 CNS
UACC-257 melanoma = tested on: UACC-257 melanoma
UACC-62 melanoma = tested on: UACC-62 melanoma
UO-31 renal = tested on: UO-31 renal

Structure (SMILES): Clc1ccc(COc2ccccc2/C=N/c2c(-c3ccco3)nc3ccccn23)c(Cl)c1
- TGI (786-0 renal): 75.9 µM
- TGI (A498 renal): > 100 µM
- TGI (A549 NSCLC): > 100 µM
- TGI (ACHN renal): > 100 µM
- TGI (BT-549 breast): 89.6 µM
- TGI (CAKI-1 renal): > 100 µM
- TGI (CCRF-CEM leukemia): 63.7 µM
- TGI (COLO 205 colon): > 100 µM
- TGI (DU-145 prostate): 76 µM
- TGI (EKVX NSCLC): > 100 µM
- TGI (HCC-2998 colon): > 100 µM
- TGI (HCT-116 colon): 36.7 µM
- TGI (HCT-15 colon): 88.3 µM
- TGI (HL-60(TB) leukemia): 71.2 µM
- TGI (HOP-62 NSCLC): > 100 µM
- TGI (HOP-92 NSCLC): 57.4 µM
- TGI (HS 578T breast): > 100 µM
- TGI (HT29 colon): > 100 µM
- TGI (IGROV1 ovarian): > 100 µM
- TGI (K-562 leukemia): > 100 µM
- TGI (KM12 colon): > 100 µM
- TGI (LOX IMVI melanoma): 35.5 µM
- TGI (M14 melanoma): 74.1 µM
- TGI (MALME-3M melanoma): > 100 µM
- TGI (MCF7 breast): 62 µM
- TGI (MDA-MB-231 breast): 52.6 µM
- TGI (MDA-MB-435): 49.1 µM
- TGI (MDA-N): 70.2 µM
- TGI (MOLT-4 leukemia): > 100 µM
- TGI (NCI-H226 lung): > 100 µM
- TGI (NCI-H23 lung): > 100 µM
- TGI (NCI-H460 lung): > 100 µM
- TGI (NCI-H522 lung): > 100 µM
- TGI (NCI/ADR-RES ovarian): 96.1 µM
- TGI (OVCAR-3 ovarian): > 100 µM
- TGI (OVCAR-4 ovarian): > 100 µM
- TGI (OVCAR-5 ovarian): > 100 µM
- TGI (OVCAR-8 ovarian): > 100 µM
- TGI (PC-3 prostate): > 100 µM
- TGI (RPMI-8226 leukemia): 86.2 µM
- TGI (RXF 393 renal): 56.3 µM
- TGI (SF-268 CNS): > 100 µM
- TGI (SF-295 CNS): > 100 µM
- TGI (SF-539 CNS): 47.3 µM
- TGI (SK-MEL-2 melanoma): 42.8 µM
- TGI (SK-MEL-28 melanoma): > 100 µM
- TGI (SK-MEL-5 melanoma): 32 µM
- TGI (SK-OV-3 ovarian): > 100 µM
- TGI (SN12C renal): 66.6 µM
- TGI (SNB-19 CNS): > 100 µM
- TGI (SNB-75 CNS): 69.7 µM
- TGI (SR leukemia): 49.2 µM
- TGI (SW-620 colon): > 100 µM
- TGI (T-47D breast): > 100 µM
- TGI (TK-10 renal): 88.6 µM
- TGI (U251 CNS): > 100 µM
- TGI (UACC-257 melanoma): > 100 µM
- TGI (UACC-62 melanoma): > 100 µM
- TGI (UO-31 renal): > 100 µM

Structure (SMILES): C=C1CC2(CC(c3ccccc3OC)OC(c3ccccc3OC)C2)OC1=O (stereo not drawn)
- TGI (786-0 renal): 3.01 µM
- TGI (A498 renal): 12.1 µM
- TGI (A549 NSCLC): 11.2 µM
- TGI (ACHN renal): 5.41 µM
- TGI (BT-549 breast): 3.12 µM
- TGI (CAKI-1 renal): 7.13 µM
- TGI (CCRF-CEM leukemia): 4.47 µM
- TGI (COLO 205 colon): 4.06 µM
- TGI (DU-145 prostate): 20.2 µM
- TGI (EKVX NSCLC): 27.7 µM
- TGI (HCC-2998 colon): 5.92 µM
- TGI (HCT-116 colon): 3.3 µM
- TGI (HCT-15 colon): 4.5 µM
- TGI (HL-60(TB) leukemia): 3.51 µM
- TGI (HOP-62 NSCLC): 26.8 µM
- TGI (HOP-92 NSCLC): 3.09 µM
- TGI (HS 578T breast): 4.9 µM
- TGI (HT29 colon): 4.32 µM
- TGI (IGROV1 ovarian): 3.37 µM
- TGI (K-562 leukemia): 5.32 µM
- TGI (KM12 colon): 6.65 µM
- TGI (LOX IMVI melanoma): 2.98 µM
- TGI (M14 melanoma): 3.35 µM
- TGI (MALME-3M melanoma): 3.31 µM
- TGI (MCF7 breast): 3.32 µM
- TGI (MDA-MB-231 breast): 3.45 µM
- TGI (MDA-MB-435): 3.56 µM
- TGI (MDA-N): 3.44 µM
- TGI (MOLT-4 leukemia): 5.52 µM
- TGI (NCI-H226 lung): 19.4 µM
- TGI (NCI-H23 lung): 4.62 µM
- TGI (NCI-H460 lung): 17.7 µM
- TGI (NCI-H522 lung): 2.98 µM
- TGI (NCI/ADR-RES ovarian): 7.73 µM
- TGI (OVCAR-3 ovarian): 3.7 µM
- TGI (OVCAR-4 ovarian): 11 µM
- TGI (OVCAR-5 ovarian): 18.6 µM
- TGI (OVCAR-8 ovarian): 3.56 µM
- TGI (PC-3 prostate): 4.33 µM
- TGI (RPMI-8226 leukemia): 1.45 µM
- TGI (RXF 393 renal): 3.31 µM
- TGI (SF-268 CNS): 6.41 µM
- TGI (SF-295 CNS): 14.4 µM
- TGI (SF-539 CNS): 4.95 µM
- TGI (SK-MEL-2 melanoma): 3.45 µM
- TGI (SK-MEL-28 melanoma): 2.17 µM
- TGI (SK-MEL-5 melanoma): 7.05 µM
- TGI (SK-OV-3 ovarian): 25.5 µM
- TGI (SN12C renal): 4.05 µM
- TGI (SNB-19 CNS): 14 µM
- TGI (SNB-75 CNS): 9.09 µM
- TGI (SR leukemia): 4.92 µM
- TGI (SW-620 colon): 4.03 µM
- TGI (T-47D breast): 3.4 µM
- TGI (TK-10 renal): 4.31 µM
- TGI (U251 CNS): 13.6 µM
- TGI (UACC-257 melanoma): 4.23 µM
- TGI (UACC-62 melanoma): 4.26 µM
- TGI (UO-31 renal): 2.85 µM
